Data on 23 compounds can be found in patent publication US11110082B2, “Tyrosine kinase inhibitors” (Rigel Pharmaceuticals, Inc., priority 2016, dated 2021).

The structures appear in SMILES notation.

In the experiment the target is T1, MerTK (Homo sapiens, UniProt Q12866).
T1 construct: Seed HUVECs (10K cells/well) in EBM-2 complete media; host or cells: HUVEC (primary human umbilical vein endothelial cells)
T1 sequence (Q12866 21-999): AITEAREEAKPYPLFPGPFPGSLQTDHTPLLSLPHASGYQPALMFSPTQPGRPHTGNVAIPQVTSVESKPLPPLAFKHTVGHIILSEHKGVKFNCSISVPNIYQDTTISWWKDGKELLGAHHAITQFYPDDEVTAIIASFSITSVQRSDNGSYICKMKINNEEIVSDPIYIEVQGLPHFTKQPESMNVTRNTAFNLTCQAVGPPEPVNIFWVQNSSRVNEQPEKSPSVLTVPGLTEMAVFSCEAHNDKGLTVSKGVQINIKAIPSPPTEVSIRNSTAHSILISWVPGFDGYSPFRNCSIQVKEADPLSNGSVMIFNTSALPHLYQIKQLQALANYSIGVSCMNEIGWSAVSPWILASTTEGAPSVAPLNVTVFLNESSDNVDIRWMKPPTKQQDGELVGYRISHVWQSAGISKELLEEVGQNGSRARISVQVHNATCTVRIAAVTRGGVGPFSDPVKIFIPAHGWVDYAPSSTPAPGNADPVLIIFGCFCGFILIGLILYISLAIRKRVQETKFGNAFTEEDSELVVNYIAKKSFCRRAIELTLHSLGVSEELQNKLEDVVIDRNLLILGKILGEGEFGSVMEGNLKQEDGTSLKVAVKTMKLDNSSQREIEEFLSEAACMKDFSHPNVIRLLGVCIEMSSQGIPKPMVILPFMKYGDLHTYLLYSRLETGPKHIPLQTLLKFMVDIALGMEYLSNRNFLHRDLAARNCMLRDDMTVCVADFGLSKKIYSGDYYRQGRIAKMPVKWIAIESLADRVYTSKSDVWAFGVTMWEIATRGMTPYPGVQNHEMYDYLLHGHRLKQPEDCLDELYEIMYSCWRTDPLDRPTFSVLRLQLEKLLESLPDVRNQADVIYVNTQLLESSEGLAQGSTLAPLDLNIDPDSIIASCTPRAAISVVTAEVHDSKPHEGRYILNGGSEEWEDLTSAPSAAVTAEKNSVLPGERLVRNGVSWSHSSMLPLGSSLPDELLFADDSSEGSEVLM
The experiment is described as follows: PAKT HTRF-HUVEC assay (pAkt Ser473 HTRF after anti-human MerTK-XL stimulation). Format: cell-based. As to conditions: HUVEC cells, 1 hour compound, stimulated with anti-human MerTK-XL 1 ug/mL for 10 minutes, read-out: inhibition of MerTK. Summed up: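 Akt Ser473 phosphorylation measured by HTRF in lysates of serum-starved HUVECs. Cells received compound for 1 h at 37° C before a 10-min challenge with antibody-cross-linked anti-MerTK (1 ug/mL final); EC50 derived by curve fit.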
(TR-FRET usually uses a lanthanide donor and a delayed reading to cut background.)
In the case of `CN1CCN(Cc2ccc3c(c2)c(=O)n(C2CCN(C(=O)OC(C)(C)C)CC2)c2nc(NCC4CC4)ncc32)CC1` [Compound 188], the EC50 amounted to 11300 nM. For the compound `CN1CCC(Nc2ccc3c(c2)c(=O)n([C@H]2CC[C@H](O)CC2)c2nc(NCC4CC4)ncc32)CC1` [Compound 189, trans-3-((Cyclopropylmethyl)amino)-5-(4-hydroxycyclohexyl)-8-((1-methylpiperidin-4-yl)amino)pyrimido[4,5-c]isoquinolin-6(5H)-one], the EC50 came to 76.4 nM. To `CN1CCN(Cc2ccc3c(c2)c(=O)n([C@H]2CC[C@H](NC(=O)CC#N)CC2)c2nc(NCC4CC4)ncc32)CC1` [Compound 190, trans-2-Cyano-N-(4-(3-((cyclopropylmethyl)amino)-8-((4-methylpiperazin-1-yl)methyl)-6-oxopyrimido[4,5-c]isoquinolin-5(6H)-yl)cyclohexyl)acetamide] belongs 73 nM; to `CN1CCN(Cc2ccc3c(c2)c(=O)n(C2CCNCC2)c2nc(NCC4CC4)ncc32)CC1` [Compound 191], 875 nM; to `CN1CCN(Cc2ccc3c(c2)c(=O)n(C2CCN(C(=O)CC#N)CC2)c2nc(NCC4CC4)ncc32)CC1` [Compound 192], 4040 nM.

As for `CC(C)Nc1ncc2c3ccc(Cl)cc3c(=O)n([C@H]3CC[C@H](O)CC3)c2n1` [Compound 193], the EC50 came out at 957 nM. The value for `O=c1c2cc(CN3CCN(c4ccncc4)CC3)ccc2c2cnc(NCC3CC3)nc2n1[C@H]1CC[C@H](O)CC1` [Compound 194] was 33.6 nM; that for `CC(C)Nc1ncc2c3ccc(CN4CCN(C)CC4)cc3c(=O)n([C@H]3CC[C@H](O)CC3)c2n1` [Compound 195, trans-5-(4-Hydroxycyclohexyl)-3-(isopropylamino)-8-((4-methylpiperazin-1-yl)methyl)pyrimido[4,5-c]isoquinolin-6(5H)-one] was 72.1 nM.

Regarding `CN1CCN(Cc2ccc3c(c2)c(=O)n([C@H]2CC[C@H](O)CC2)c2nc(NC4CC4)ncc32)CC1` [Compound 196, trans-3-(Cyclopropylamino)-5-(4-hydroxycyclohexyl)-8-((4-methylpiperazin-1-yl)methyl)pyrimido[4,5-c]isoquinolin-6(5H)-one], the EC50 came to 240 nM.

Take `CCC(F)(F)CNc1ncc2c3ccc(CN4CCC5(CC4)COC5)cc3c(=O)n([C@H]3CC[C@H](O)CC3)c2n1` [Compound 197, trans-8-((2-Oxa-7-azaspiro[3.5]nonan-7-yl)methyl)-3-((2,2-difluorobutyl)amino)-5-(4-hydroxycyclohexyl)pyrimido[4,5-c]isoquinolin-6(5H)-one]: the EC50 stood at 97.7 nM. Take `CCC(F)(F)CNc1ncc2c3ccc(CN4CCN(C(C)(C)C)CC4)cc3c(=O)n([C@H]3CC[C@H](O)CC3)c2n1` [Compound 198, trans-8-((4-(tert-Butyl)piperazin-1-yl)methyl)-3-((2,2-difluorobutyl)amino)-5-(4-hydroxycyclohexyl)pyrimido[4,5-c]isoquinolin-6(5H)-one]: the EC50 was 13.2 nM.

As to `CC(C)(C)N1CCN(Cc2ccc3c(c2)c(=O)n([C@H]2CC[C@H](O)CC2)c2nc(NC4CC(F)(F)C4)ncc32)CC1` [Compound 199, trans-8-((4-(tert-Butyl)piperazin-1-yl)methyl)-3-((3,3-difluorocyclobutyl)amino)-5-(4-hydroxycyclohexyl)pyrimido[4,5-c]isoquinolin-6(5H)-one], the EC50 stood at 10.8 nM. To `O=C(O)C1CCN(Cc2ccc3c(c2)c(=O)n([C@H]2CC[C@H](O)CC2)c2nc(NCC4CC4)ncc32)CC1` [Compound 200, trans-1-((3-((Cyclopropylmethyl)amino)-5-(4-hydroxycyclohexyl)-6-oxo-5,6-dihydropyrimido[4,5-c]isoquinolin-8-yl)methyl)piperidine-4-carboxylic acid] belongs 11300 nM; to `CC(C)(C)OC(=O)C1CCN(Cc2ccc3c(c2)c(=O)n([C@H]2CC[C@H](O)CC2)c2nc(NCC4CC4)ncc32)CC1` [Compound 201, trans-tert-Butyl 1-((3-((cyclopropylmethyl)amino)-5-(4-hydroxycyclohexyl)-6-oxo-5,6-dihydropyrimido[4,5-c]isoquinolin-8-yl)methyl)piperidine-4-carboxylate], 72.5 nM. To `O=c1c2cc(CN3CCCCC3)ccc2c2cnc(NCC3CC3)nc2n1[C@H]1CC[C@H](O)CC1` [Compound 202, trans-3-((Cyclopropylmethyl)amino)-5-(4-hydroxycyclohexyl)-8-(piperidin-1-ylmethyl)pyrimido[4,5-c]isoquinolin-6(5H)-one] belongs 47.3 nM; to `NC(=O)C1CCN(Cc2ccc3c(c2)c(=O)n([C@H]2CC[C@H](O)CC2)c2nc(NCC4CC4)ncc32)CC1` [Compound 203, trans-1-((3-((Cyclopropylmethyl)amino)-5-(4-hydroxycyclohexyl)-6-oxo-5,6-dihydropyrimido[4,5-c]isoquinolin-8-yl)methyl)piperidine-4-carboxamide], 167 nM. For the compound `N#CC1CCN(Cc2ccc3c(c2)c(=O)n([C@H]2CC[C@H](O)CC2)c2nc(NCC4CC4)ncc32)CC1` [Compound 204, trans-1-((3-((Cyclopropylmethyl)amino)-5-(4-hydroxycyclohexyl)-6-oxo-5,6-dihydropyrimido[4,5-c]isoquinolin-8-yl)methyl)piperidine-4-carbonitrile], the EC50 was 57.7 nM.

For `N[C@H]1CC[C@H](n2c(=O)c3cc(Cl)ccc3c3cnc(NCC4CC4)nc32)CC1` [Compound 205], the EC50 was 293 nM. The value for `CC(C)(C)OC(=O)N1CCC(Cc2ccc3c(c2)c(=O)n([C@H]2CC[C@H](O)CC2)c2nc(NCC4CC4)ncc32)CC1` [Compound 206] was 1280 nM. For `O=c1c2cc(CC3CCNCC3)ccc2c2cnc(NCC3CC3)nc2n1[C@H]1CC[C@H](O)CC1` [Compound 207, trans-3-((Cyclopropylmethyl)amino)-5-(4-hydroxycyclohexyl)-8-(piperidin-4-ylmethyl)pyrimido[4,5-c]isoquinolin-6(5H)-one], the EC50 was 537 nM. The value for `O=c1c2cc(OCCCN3CCOCC3)ccc2c2cnc(NCC3CC3)nc2n1[C@H]1CC[C@H](O)CC1` [Compound 208, trans-3-((Cyclopropylmethyl)amino)-5-(4-hydroxycyclohexyl)-8-(3-morpholinopropoxy)pyrimido[4,5-c]isoquinolin-6(5H)-one] was 415 nM; that for `O=c1c2cc(CN3CCC4(CC3)COC4)ccc2c2cnc(NC3CCC3)nc2n1[C@H]1CC[C@H](O)CC1` [Compound 209, trans-8-((2-Oxa-7-azaspiro[3.5]nonan-7-yl)methyl)-3-(cyclobutylamino)-5-(4-hydroxycyclohexyl)pyrimido[4,5-c]isoquinolin-6(5H)-one] was 13.9 nM. To `O=c1c2cc(CN3CCC4(CC3)COC4)ccc2c2cnc(NC3CC(F)(F)C3)nc2n1[C@H]1CC[C@H](O)CC1` [Compound 210, trans-8-((2-Oxa-7-azaspiro[3.5]nonan-7-yl)methyl)-3-((3,3-difluorocyclobutyl)amino)-5-(4-hydroxycyclohexyl)pyrimido[4,5-c]isoquinolin-6(5H)-one] belongs 85.6 nM.
